Source: patent publication US11357749B2, “Methods for treating neutropenia” (Enzychem Lifesciences Corporation, priority 2014, dated 2022)

Legend:
[1] = system: HepG2 cells; experiment: WST-1 cell viability assay in HepG2 cells; format: cell-based; settings: HepG2, PLAG 1 to 100 μg/ml
Method: The incubated HepG2 cell lines are treated with PLAG (1˜100 μg/ml), followed by IL-4 and TNF-α, reacted for 1 hour, incubated for 18 hours at 37° C. and the supernatant isolated. Quantitation of the amount of C3 in the cellular culture medium (supernatant) from HepG2 cells is performed by ELISA using a commercially available monoclonal antibody (mAb, R&D Systems) and the manufacture's protocol; the results are presented in FIG. 3. C3 is expressed spontaneously under in vitro culture condition using 10% FCS added to HepG2 cells incubated for 12 hr. The cells are treated with different doses of PLAG from 1 to 100 μg/ml (Panel A, Panel B) or 10 and 100 μg/ml of S6I (Panel C), reacted with IL-4 and TNF-α for 1 hr and then incubated for 18 hr at 37° C. Cellular viability is confirmed using the WST-1 assay (Panel A).

[2] = system: neutrophils; experiment: Chemotherapy-induced neutropenia mouse model (neutrophil count, survival); format: in vivo, mice
Method: (§1) The effect of PLAG for treatment of neutropenia and thrombocytopenia induced by chemotherapy (CIN) is evaluated in an animal model. Anti-cancer agents (Gemcitabine 50 mg/kg, Cyclosphosphamide 100 mg/kg, or Tamoxifen 50 mg/kg) are dosed daily for 3 weeks; PLAG is also administered 50 mg/kg daily for 3 weeks. After three weeks, neutrophils are harvested and counted with Auto Hematology Analyzer BC-5300.

[3] = system: Complement 3; experiment: Complement 3 activation by chemotherapeutic agents in mouse model; format: in vivo; settings: mice, Gemcitabine, Cyclophosphamide or Tamoxifen plus PLAG
Method: as §1
It is believed that the neutropenia and thrombocytopenia of these agents and other chemotherapeutic agents may be due at least in part to a specific complement-mediated toxicity. This is seen in FIG. 6.

[4] = system: platelets; experiment: Tamoxifen-induced platelet reduction in mice; format: in vivo; settings: Tam 100 mg/kg + PLAG 5 mg/kg, after 15 hours
Method: (§2) Mice are injected with 100 mg/kg phenylhydrazine (PHZ), i.p., to induce anemia and reduction of platelets. 5 mg/kg PLAG is administered to the mice orally and blood samples are taken at 3 and 13 days after. In addition, for comparison, normal mice which are not treated with phenylhydrazine are prepared as a normal group, and mice treated with PHZ and olive oil instead of PLAG are prepared as a control group. The blood samples taken from the mice are treated with 0.5 ml EDTA (Minicollect tube, Greiner bio-one, Austria) and concentration of platelet is measured using automated blood sample analyzer BC-6800 (Mindray, Shenzhen, China) by number of platelet per […] (k: 1,000).
(§3) The experiment is repeated using Tamoxifen (Tam), an anticancer agent, injected at the amount of 100 mg/kg, or lipopolysaccharide (LPS), an inflammation inducer, at the amount of 1 mg/kg to induce platelet reduction. Platelet concentration is measured 15 hours after PLAG treatment. For comparison, olive oil and PBS are used instead of PLAG as controls, respectively for the Tamoxifen and lipopolysaccharide experiment.

[5] = system: platelets; experiment: Lipopolysaccharide-induced platelet reduction in mice; format: in vivo; settings: 15 hours
Method: as §2, §3

[6] = system: neutrophils, lymphocytes and eosinophils; experiment: Neutrophil, lymphocyte and eosinophil ratio after Tamoxifen and PLAG in mice; format: in vivo; settings: Tam 100 mg/kg + PLAG 5 mg/kg, after 15 hours
Method: 100 mg/kg of anticancer agent Tamoxifen (Tam) is used to induce reduction of neutrophils, followed by treated with 5 mg/kg of PLAG and the ratios of neutrophil (NEU), lymphocyte (LYM), and eosinophil (EOS) are measured after 15 hours as in the previous experiment.

[7] = system: white blood cells and neutrophils; experiment: Cyclophosphamide-induced neutropenia in mice, G-CSF with or without PLAG; format: in vivo; settings: PLAG 25 mpk p.o. added to G-CSF 0.25 mpk i.p., cyclophosphamide-treated mice
Source text: Mice receive cyclophosphamide (100 mpk, i.p.) for a period of ten days, with or without G-CSF (0.25 mpk, i.p.) or G-CSF (0.25 mpk, i.p.) plus PLAG (25 mpk, p.o.): […]

[8] = system: C4; experiment: Clinical study in healthy subjects: C4 in blood; format: in vivo, human
[9] = system: platelets; experiment: Pilot study in pancreatic cancer patients receiving chemotherapy: platelets; format: in vivo, human; settings: 16 patients, Gemcitabine and Erlotinib, PLAG 1,000 mg once per day orally, two cycles
Method: (§4) PLAG is administered to sixteen pancreatic cancer patients after chemotherapy. The subjects of this study are unoperable pancreatic cancer patients with ECOG (Eastern Cooperative Oncology Group) performance status of “0” or “1”, i.e. patients in good physical condition without much pain, able to enjoy almost normal lifestyle and thus, eligible for anticancer treatment for at least 2 months. The pancreatic cancer patients are “locally advanced” patients having tumor metastasis to the major vessels around pancreas or “Distant metastasis” patients with distant metastasis to liver, lung, bone, etc. ECOG performance status “0” refers to a patient who is asymptomatic, fully active, able to carry on all predisease activities without restriction with no pain and no problem for normal lifestyle, while “1” refers to a patient who is symptomatic but completely ambulatory with mile pain and a little problem for normal life. Anticancer (Gemcitabine and Erlotinib combo treatment) Regimen is as follows: 1,000 mg of Gemcitabine is injected once a week for three weeks (Day 1, Day 8, Day 15), and is not injected in the next one week (Day 22). Therefore, 1 cycle of anticancer treatment requires 1 month. 100 mg of Erlotinib (Tarceva) is administered once per day everyday orally. 1,000 mg of PLAG is also administered once per day orally, starting from 3 days before anticancer treatment until the last chemotherapy treatment. The PLAG treatment group and control group both completed two cycles of anticancer treatment. There is no difference among the control and PALG treatment groups in the amount or schedule of anticancer treatment.

[10] = system: neutrophils; experiment: Pilot study in pancreatic cancer patients receiving chemotherapy: neutrophils (ANC); format: in vivo, human; settings: 16 patients, Gemcitabine and Erlotinib, PLAG 1,000 mg once per day orally, two cycles
Method: as §4

[11] = stated as known; cited from earlier work
[12] = system: sepsis; settings: sepsis animal model, cecal-ligation-puncture; stated as known; cited from earlier work

## CCCCC/C=C\C/C=C\CCCCCCCC(=O)OC(COC(C)=O)COC(=O)CCCCCCCCCCCCCCC (racemic) [PLAG, 1-palmitoyl-2-linoleoyl-3-acetylglycerol]
[1]
  cellular viability (WST-1): does not affect the cellular propagation and death
[2]; Gemcitabine 50 mg/kg, Cyclosphosphamide 100 mg/kg or Tamoxifen 50 mg/kg daily, PLAG 50 mg/kg daily, 3 weeks
  reduced neutrophil count following chemotherapy: prevented
[2]; PLAG with Gemcitabine vs Gemcitabine alone
  survival rate: improved survival rate
[2]; Tamoxifen 50 mg/kg co-treated with PLAG vs Tamoxifen only
  activities and survival rate: faster improvement of activities and survival rate
[2]; mice treated with PLAG 50 mg/kg and Gemcitabine 50 mg/kg daily, 3 weeks
  neutrophil score: improved significantly
[2]; mice treated with PLAG 50 mg/kg and cyclophosphamide 100 mg/kg daily, 3 weeks, vs control group
  neutrophil count: improved significantly
[3]
  Complement 3 activation by chemotherapeutic agents: largely blocked
[4]
  Platelet Conc.: 780.7 ± 195.9 k/ul
[5]; LPS 1 mg/kg + PLAG 1 mg/kg
  Platelet Conc.: 450.00 k/ul
[5]; LPS 1 mg/kg + PLAG 2 mg/kg
  Platelet Conc.: 553.33 k/ul
[6]
  Eosinophil Ratio: 15.1 ± 0.3%
  Lymphocyte ratio: 45.7 ± 4.1%
  Neutrophil Ratio: 35.2 ± 2.4%
[7]
  increase of WBC over G-CSF alone: more than 60%
  increase of neutrophils over G-CSF alone: more than 70%
[8]; healthy subjects n = 27, 500 mg PLAG per day oral, after 4-wk intervention
  C4, After: 20.8 ± 5.6 mg/dL
[8]; healthy subjects n = 27, before PLAG supplementation
  C4, Before: 21.6 ± 6.6 mg/dL
[9]
  patients whose platelet number dropped to less than 25,000: no patient
  patients with >50% decrease in platelet count: 43.8%
  patients with >60% decrease in platelet count: 25%
  patients with >70% decrease in platelet count: none
  patients with anticancer treatment postponed or dose adjusted due to platelet number decrease to less than 50,000: no patient
[10]
  patients with neutrophil (ANC) decrease to less than 1,500/μl: 37.5%
  patients with neutrophil decrease to less than 500/μl: none
  patients with neutrophil decrease to less than 1,000/μl: 18.8%
  patients with neutrophil number decrease to less than 50%: 37.5%
  patients with neutrophil number decrease to less than 60%: 18.8%
  patients with neutrophil number decrease to less than 75%: none
[11]
  toxicity in GLP toxicity test: no toxicity
[12]
  survivability ratio of animals: increases survivability ratio
